Patent EP3505512B1, “QUATERNARY NICOTINAMIDE DERVIATIVES AS PRECURSORS FOR RELEASE OF MNA” (UNIWERSYTET JAGIELLONSKI, priority 2017, dated 2019)

Legend:
[1] = esterase dependent hydrolysis: incubation in fresh rat plasma, LC-MS/MS determination of parent compound, MNAF and MNA; settings: for release of intermediate compound MNAF / rate of hydrolysis (property depending on structure): group property, matrix not given; for hydrolysis of parent compound during plasma incubation: fresh rat plasma, 37°C, incubation 120 min
[2] = hydrolytic stability in solution: incubation in PBS buffer, LC-MS/MS determination of parent compound, MNAF and MNA; type: physicochemical; settings: 37°C, incubation 120 min
Procedure: The invention also concerns the method of releasing N1-methylnicotinamide (MNA), which is characterized by the following steps: pyridine salts derivatives, as defined above, are incubated in a shaking water bath at 37°C for 120 minutes, then samples are taken 1, 5, 15, 30, 60, 90 and 120 minutes after the start of incubation, by taking 50 µL of a sample to which 500 µL of acetonitrile cooled to -20°C was added to interrupt the hydrolysis reaction, then samples were cooled for 20 minutes at 4°C for protein precipitation, and then centrifuged under the following conditions: 4°C, 15,000 x rpm, 15 min, and the supernatant was transferred to separate chromatographic tubes and 5 µL was applied to the chromatographic column. Preferably, when MNA release is studied in PBS buffer - testing hydrolytic stability in solution and/or in rat plasma - additionally testing plasma esterase-dependent hydrolysis.
For that purpose, the studied compounds were incubated: (1) in PBS buffer - testing hydrolytic stability in solution; (2) in rat plasma - testing additionally esterase dependent hydrolysis. Incubation was carried out in a shaking water bath at 37°C. The studied compounds were added to the prepared biological matrix and incubated for 120 min. Samples were collected 1, 5, 15, 30, 60, 90 and 120 min. after the beginning of incubation, by taking 50 µL of a sample to which 500 µL of acetonitrile cooled to -20°C was added to stop the hydrolysis reaction. The samples were cooled for 20 minutes at 4°C in order to precipitate proteins and then centrifuged under the following conditions: 4°C, 15,000 x rpm, 15 min. The supernatant was transferred to separate chromatographic tubes and 5 µL was injected onto chromatographic column.
The analytical system used for determination of MNA and MNAF concentrations consisted of the UltiMate 3000 liquid chromatograph (Dionex, Thermo Scientific) and the Quantum Ultra TSQ mass spectrometer (Thermo Scientific). For chromatographic separation the Aquasil C18 (4.6 x 150 mm, 5 µm, Thermo Scientific) analytical column was used with isocratic mobile phase, a mixture of 0.1% formic acid in acetonitrile and 5mM ammonium formate (80: 20, v/v)) elution ,at the flow rate of 0,8 mL/min. The detection was performed in the selected reaction monitoring (SRM) mode in positive ionization, monitoring the following ion transitions: m/z 137 → 94 (CE=19V) for MNA, m/z 167 → 137 (CE10) for MNAF, m/z 140 → 97 (CE=19V) for MNA-d3 used as internal standard. The parameters of the ion source were as follows: gas pressure 30 psi (sheath gas) and 10 psi (auxiliary gas), ion spray voltage 4500V, H-ESI ison sourse vaporizer temperature 300°C, capillary temperature 300°C, pressure in the collision chamber 1.5 mTorr (argon).

## 3-({[(3,4,5-trimethoxybenzoyl)oxy]methyl}carbamoyl)-1 methylpyridinium iodide [C-2942]
[1]
  release of intermediate compound MNAF / rate of hydrolysis (property depending on structure): quick release of an intermediate compound MNAF

## 3-(methoxymethylcarbamoyl)-1-methylpyridinium iodide [C-2823]
[1]
  hydrolysis of parent compound during plasma incubation: slow and slight hydrolysis
  release of intermediate compound MNAF / rate of hydrolysis (property depending on structure): hydrolyse very slowly
[2]
  stability in PBS buffer: high stability
  changes in concentrations of parent compound during incubation in PBS solution: No changes in concentrations

## iodide [(1-methylpyridine-1-ium-3-carbonyl)amino] methyl-1-methylcyclohexanecarboxylate [C-2959]
[1]
  release of intermediate compound MNAF / rate of hydrolysis (property depending on structure): quick release of an intermediate compound MNAF

## 3-[(2,2-dimethylpropionyl oxymethyl)carbamoyl]-1-methylpyridinium iodide [C-2647]
[1]
  release of intermediate compound MNAF / rate of hydrolysis (property depending on structure): quick release of an intermediate compound MNAF

## 3-(isobutanoyloxymethylcarbamoyl)-1-methylpyridinium iodide [C-2649]
[1]
  release of intermediate compound MNAF / rate of hydrolysis (property depending on structure): quick release of an intermediate compound MNAF

## 3-(benzoyloxymethylcarbamoyl)-1-methylpyridinium iodide [C-2648]
[1]
  release of intermediate compound MNAF / rate of hydrolysis (property depending on structure): quick release of an intermediate compound MNAF

## 3-[(adamanthan-1-carbonyl oxymethyl)carbamoyl]-1-methylpyridinium iodide [C-2808]
[1]
  hydrolysis of parent compound during plasma incubation: slow and slight hydrolysis
  release of intermediate compound MNAF / rate of hydrolysis (property depending on structure): hydrolyse very slowly
[2]
  stability in PBS buffer: high stability
  changes in concentrations of parent compound during incubation in PBS solution: No changes in concentrations

## 3-(Acetoxymethylcarbamoyl)-1-methylpyridinium iodide [C-2578]
[1]
  release of intermediate compound MNAF / rate of hydrolysis (property depending on structure): quick release of an intermediate compound MNAF
